Target: T1, cyclooxygenase-1 (COX-1) (Ovis aries, UniProt P05979)
T1 sequence (P05979 25-600): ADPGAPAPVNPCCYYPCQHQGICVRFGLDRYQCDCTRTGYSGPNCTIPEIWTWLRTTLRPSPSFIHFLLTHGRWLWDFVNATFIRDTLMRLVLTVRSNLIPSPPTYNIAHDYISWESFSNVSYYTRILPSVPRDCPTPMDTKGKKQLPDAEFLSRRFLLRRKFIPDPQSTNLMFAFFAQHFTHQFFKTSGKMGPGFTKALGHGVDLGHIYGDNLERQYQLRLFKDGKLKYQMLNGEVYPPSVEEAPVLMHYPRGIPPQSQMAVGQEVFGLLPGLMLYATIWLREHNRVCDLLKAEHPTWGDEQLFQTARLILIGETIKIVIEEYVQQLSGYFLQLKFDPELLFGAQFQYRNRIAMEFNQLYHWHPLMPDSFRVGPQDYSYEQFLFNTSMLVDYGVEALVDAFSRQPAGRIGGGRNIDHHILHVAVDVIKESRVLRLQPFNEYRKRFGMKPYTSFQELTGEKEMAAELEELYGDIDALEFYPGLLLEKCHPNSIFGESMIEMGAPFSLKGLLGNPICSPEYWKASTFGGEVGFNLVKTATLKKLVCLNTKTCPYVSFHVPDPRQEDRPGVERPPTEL
Assay: O2 consumption
Assay type: biochemical

IC50: > 100 µM
Structure (SMILES): COc1cc(O)c2c(=O)cc(-c3ccc(OC)c(-c4c(O)cc(O)c5c(=O)cc(-c6ccc(O)cc6)oc45)c3)oc2c1 [compound 1, ginkgetin]
